Data published in ChEMBL document CHEMBL1137765, “Design and synthesis of novel chloramphenicol amine derivatives as potent aminopeptidase N (APN/CD13) inhibitors” (Bioorg Med Chem, 2009).

Legend:
Aminopeptidase N = biological target: T1, Aminopeptidase N (Sus scrofa, UniProt P15145); assay: Inhibition of pig kidney microsomal Aminopeptidase N
T1 sequence (P15145 whole entry): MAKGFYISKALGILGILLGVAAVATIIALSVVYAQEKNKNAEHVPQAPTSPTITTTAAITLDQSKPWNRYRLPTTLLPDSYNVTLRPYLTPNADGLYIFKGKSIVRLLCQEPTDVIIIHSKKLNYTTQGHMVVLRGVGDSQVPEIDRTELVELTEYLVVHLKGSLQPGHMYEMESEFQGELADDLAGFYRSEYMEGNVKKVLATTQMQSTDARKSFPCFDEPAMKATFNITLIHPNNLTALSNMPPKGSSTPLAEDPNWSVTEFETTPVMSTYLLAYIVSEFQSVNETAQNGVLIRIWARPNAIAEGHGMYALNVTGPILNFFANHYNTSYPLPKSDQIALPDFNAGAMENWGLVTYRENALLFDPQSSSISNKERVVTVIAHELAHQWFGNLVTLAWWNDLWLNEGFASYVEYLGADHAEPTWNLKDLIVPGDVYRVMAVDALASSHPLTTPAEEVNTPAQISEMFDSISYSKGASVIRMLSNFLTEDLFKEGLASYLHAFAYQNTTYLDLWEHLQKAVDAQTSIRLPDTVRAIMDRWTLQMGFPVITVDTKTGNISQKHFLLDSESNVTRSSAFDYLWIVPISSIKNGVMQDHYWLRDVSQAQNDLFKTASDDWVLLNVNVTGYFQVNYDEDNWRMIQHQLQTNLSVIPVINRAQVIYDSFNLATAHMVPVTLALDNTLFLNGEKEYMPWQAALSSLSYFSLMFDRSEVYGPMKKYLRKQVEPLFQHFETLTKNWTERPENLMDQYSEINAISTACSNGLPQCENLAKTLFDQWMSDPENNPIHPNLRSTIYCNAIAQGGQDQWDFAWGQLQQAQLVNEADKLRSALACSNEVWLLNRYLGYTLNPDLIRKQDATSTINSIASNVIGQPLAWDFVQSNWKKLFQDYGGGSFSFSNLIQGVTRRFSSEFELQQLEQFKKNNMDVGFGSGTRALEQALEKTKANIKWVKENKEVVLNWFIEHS

HL-60 = assay: cells; conditions: Homo sapiens, HL-60, 48 h
Description: Antiproliferative activity against human HL60 cells after 48 hrs by MTT assay

Compound	IC50 (Aminopeptidase N) [µM]	IC50 (HL-60) [µM]
N[C@@H](C(=O)N[C@@H](Cc1cc2ccccc2[nH]1)C(=O)O)[C@@H](O)c1ccc([N+](=O)[O-])cc1	162	
N[C@@H](C(=O)NCCCC(=O)O)[C@@H](O)c1ccc([N+](=O)[O-])cc1	2890	
N[C@@H](C(=O)NCCCCCC(=O)O)[C@@H](O)c1ccc([N+](=O)[O-])cc1	1390	
N[C@@H](C(=O)NCc1ccccc1)[C@@H](O)c1ccc([N+](=O)[O-])cc1	170	
N[C@@H](C(=O)NCc1ccc(F)cc1)[C@@H](O)c1ccc([N+](=O)[O-])cc1	302	
CCCCNC(=O)[C@H](N)[C@@H](O)c1ccc([N+](=O)[O-])cc1	233	
CCCCCNC(=O)[C@H](N)[C@@H](O)c1ccc([N+](=O)[O-])cc1	522	
COc1ccc(CNC(=O)[C@H](N)[C@@H](O)c2ccc([N+](=O)[O-])cc2)cc1	145	
CCCNC(=O)[C@H](N)[C@@H](O)c1ccc([N+](=O)[O-])cc1	183	
CC(C)NC(=O)[C@H](N)[C@@H](O)c1ccc([N+](=O)[O-])cc1	251	
CC(C)[C@H](NC(=O)[C@H](N)[C@@H](O)c1ccc([N+](=O)[O-])cc1)C(=O)O	160	
N[C@@H](C(=O)NC1CCCCC1)[C@@H](O)c1ccc([N+](=O)[O-])cc1	251	
CC(C)C[C@H](NC(=O)[C@@H](O)[C@H](N)Cc1ccccc1)C(=O)O [UBENIMEX]		1650

The remaining compounds from weak to strong by IC50 (Aminopeptidase N), led by results:

IC50 (Aminopeptidase N) [µM]	IC50 (HL-60) [µM]	Compound
140		N[C@@H](C(=O)O)[C@@H](O)c1ccc([N+](=O)[O-])cc1
137		N[C@@H](C(=O)NCCc1ccccc1Cl)[C@@H](O)c1ccc([N+](=O)[O-])cc1
116		N[C@@H](C(=O)N[C@H](CO)Cc1ccccc1)[C@@H](O)c1ccc([N+](=O)[O-])cc1
106		N[C@@H](C(=O)NCCc1ccccc1)[C@@H](O)c1ccc([N+](=O)[O-])cc1
90.3		N[C@@H](C(=O)NCCc1ccc2c(c1)OCO2)[C@@H](O)c1ccc([N+](=O)[O-])cc1
85.6		CC(C)C[C@H](NC(=O)[C@H](N)[C@@H](O)c1ccc([N+](=O)[O-])cc1)C(=O)O
60.4		N[C@@H](C(=O)N[C@@H](Cc1ccccc1)C(=O)O)[C@@H](O)c1ccc([N+](=O)[O-])cc1
54		CC(C)C[C@H](NC(=O)[C@H](N)[C@@H](O)c1ccc([N+](=O)[O-])cc1)C(=O)NO
51.4		N[C@@H](C(=O)NCCc1ccc(O)cc1)[C@@H](O)c1ccc([N+](=O)[O-])cc1
34.6	2020	CC(C)C[C@H](NC(=O)[C@H](N)[C@@H](O)c1ccc([N+](=O)[O-])cc1)C(=O)N[C@@H](Cc1ccccc1)C(=O)O
31.3		N[C@@H](C(=O)N[C@@H](Cc1ccccc1)C(=O)NO)[C@@H](O)c1ccc([N+](=O)[O-])cc1
7.1	2210	N[C@@H](C(=O)N[C@@H](Cc1ccccc1)C(=O)N[C@@H](Cc1ccccc1)C(=O)O)[C@@H](O)c1ccc([N+](=O)[O-])cc1
